US20250170126A1 (MITSUBISHI TANABE PHARMA CORPORATION, priority 2022, published 2025)
Counter-ions that a name gives are not always drawn.

Molecular target: Human B0AT1 (Homo sapiens (Human), UniProt Q695T7)
Assay: hB0AT1 inhibitory test (phenylalanine uptake)
Type: cell-based
Conditions: Human B0AT1 stable expression CHO cells; [3H]-L-phenylalanine uptake, phenylalanine 0.25 mM
Experimental: A test compound dissolved in dimethyl sulfoxide (DMSO) was added to a 96 well plate for solid phase radioactivity measurement containing a scintillator at the bottom of the well (final concentration of DMSO 0.5%). DMSO alone as a control and DMSO containing N-(4-bromophenyl)-3,5-dichloro-2-hydroxybenzamide (final concentration […]) for the is measurement of B0AT1 non-specific uptake were similarly added at 0.5 μL per well. Human B0AT1 stable expression CHO cells suspended in a buffer (buffer containing 96 mM sodium chloride, 2 mM potassium chloride, 1.8 mM calcium chloride, 1 mM magnesium chloride, 0.01% bovine serum albumin, and 10 mM 2-[4-(2-hydroxyethyl)-1-piperazinyl]ethanesulfonic acid) were added by 90 μL to 75000 cells/well. After standing at ordinary temperature for 30 min or longer, the cells were subjected to a phenylalanine uptake experiment. A buffer containing L-phenylalanine and [3,4,5-3H]-L-phenylalanine was added by 10 μL per well (final concentration of phenylalanine 0.25 mM), and the radioactivity of the plate bottom surface at ordinary temperature was measured with a scintillation counter over time, and the radioactivity value after 100 to 200 min was analyzed. A value obtained by subtracting the B0AT1 non-specific uptake from the control uptake was taken as 100%, and the concentration necessary for each test compound to achieve 50% inhibition (IC50 value) was determined by nonlinear regression using a logistic model.

Chain of Human B0AT1 (Q695T7 whole entry): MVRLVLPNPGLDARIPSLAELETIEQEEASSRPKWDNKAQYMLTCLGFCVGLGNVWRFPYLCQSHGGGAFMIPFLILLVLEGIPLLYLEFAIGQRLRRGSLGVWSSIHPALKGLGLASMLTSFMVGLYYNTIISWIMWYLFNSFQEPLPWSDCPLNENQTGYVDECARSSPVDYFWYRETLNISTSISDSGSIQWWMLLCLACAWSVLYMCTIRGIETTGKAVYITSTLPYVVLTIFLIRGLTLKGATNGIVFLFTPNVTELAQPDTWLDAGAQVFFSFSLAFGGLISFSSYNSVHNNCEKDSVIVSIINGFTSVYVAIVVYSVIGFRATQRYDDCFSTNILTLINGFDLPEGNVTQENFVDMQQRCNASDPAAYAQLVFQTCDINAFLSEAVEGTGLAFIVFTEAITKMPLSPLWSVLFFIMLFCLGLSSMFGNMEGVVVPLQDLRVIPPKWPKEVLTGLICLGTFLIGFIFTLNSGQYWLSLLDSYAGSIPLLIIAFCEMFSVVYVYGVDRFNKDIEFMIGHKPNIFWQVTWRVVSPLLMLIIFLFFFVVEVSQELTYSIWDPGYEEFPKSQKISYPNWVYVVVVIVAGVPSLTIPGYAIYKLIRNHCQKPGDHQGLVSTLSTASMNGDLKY

| IC50 | SMILES |
| --- | --- |
| 1.62 µM | O=C(/C=C/c1ccc(C(F)(F)F)cc1)NCC(=O)N1CC[C@H](C(=O)O)C1 [I-125, (3S)-1-[2-[[(E)-3-[4-(trifluoromethyl)phenyl]prop-2-enoyl]amino]acetyl]pyrrolidine-3-carboxylic acid] |
| 0.038 µM | CN1CCN(C(=O)CNC(=O)/C=C/c2ccc(-c3ccc(F)cc3)cc2)CC1 [I-126, (E)-3-[4-(4-fluorophenyl)phenyl]-N-[2-(4-methylpiperazin-1-yl)-2-oxoethyl]prop-2-enamide] |
| 0.088 µM | CN1CCN(C(=O)CNC(=O)/C=C/c2ccc(-c3cc(F)c(F)c(F)c3)cc2)CC1 [I-127] |
| 0.678 µM | CN1CCN(C(=O)CNC(=O)/C=C/c2ccc(-c3ccc(C(F)(F)F)cc3)cc2)CC1 [I-128] |
| 0.066 µM | CC(C)(O)c1cc2n(n1)CCN(C(=O)CNC(=O)/C=C/c1ccc(C(F)(F)F)cc1)C2 [I-129, (E)-N-[2-[2-(1-hydroxy-1-methylethyl)-6,7-dihydro-4H-pyrazolo [1,5-a]pyrazin-5-yl]-2-oxoethyl]-3-[4-(trifluoromethyl)phenyl]prop-2-enamide] |
| 0.486 µM | CNC(=O)CC(COC)N(CCOC)C(=O)CNC(=O)/C=C/c1ccc(C(F)(F)F)cc1 (stereo not shown) [I-130, 4-methoxy-3-[2-methoxyethyl-[2-[[(E)-3-[4-(trifluoromethyl)phenyl]prop-2-enoyl]amino]acetyl]amino]-N-methylbutanamide] |
| 1.93 µM | Cc1nnc([C@H]2CN(C(=O)CNC(=O)/C=C/c3ccc(C(F)(F)F)cc3)CCN2C)o1 [I-131, (E)-N-[2-[(3R)-4-methyl-3-(5-methyl-1,3,4-oxadiazol-2-yl)piperazin-1-yl]-2-oxoethyl]-3-[4-(trifluoromethyl)phenyl]prop-2-enamide] |
| 0.069 µM | O=C(/C=C/c1ccc(C(F)(F)F)cc1)NCC(=O)N1CCNCC1 [I-133, (E)-N-(2-oxo-2-piperazin-1-ylethyl)-3-[4-(trifluoromethyl)phenyl]prop-2-enamide hydrochloride] |
| 1.24 µM | CCNC(=O)N1CCN(C(=O)CNC(=O)/C=C/c2ccc(C(F)(F)F)cc2)CC1 [I-134, N-ethyl-4-[2-[[(E)-3-[4-(trifluoromethyl)phenyl]prop-2-enoyl]amino]acetyl]piperazine-1-carboxamide] |
| 0.406 µM | CN1CCN(C(=O)CNC(=O)/C=C/c2ccc(C(F)(F)F)cc2)[C@@H](C(=O)N(C)C)C1 [I-138, (2R)-N,N,4-trimethyl-1-[2-[[(E)-3-[4-(trifluoromethyl)phenyl]prop-2-enoyl]amino]acetyl]piperazine-2-carboxamide] |
| 0.133 µM | CNC(=O)[C@H]1CN(C)CCN1C(=O)CNC(=O)/C=C/c1ccc(C(F)(F)F)cc1 [I-139, (2R)-N,4-dimethyl-1-[2-[[(E)-3-[4-(trifluoromethyl)phenyl]prop-2-enoyl]amino]acetyl]piperazine-2-carboxamide] |
| 0.328 µM | O=C(/C=C/c1ccc(C(F)(F)F)cc1)NCC(=O)N1CCn2cc(C(=O)O)nc2C1 [I-140, 7-[2-[[(E)-3-[4-(trifluoromethyl)phenyl]prop-2-enoyl]amino]acetyl]-6,8-dihydro-5H-imidazo[1,2-a]pyrazine-2-carboxylic acid] |
| 1.72 µM | O=C(/C=C/c1ccc(C(F)(F)F)cc1)NCC(=O)N1C[C@H](O)C[C@@H]1c1ccccc1 [I-141, (E)-N-[2-[(2R,4R)-4-hydroxy-2-phenylpyrrolidin-1-yl]-2-oxoethyl]-3-[4-(trifluoromethyl)phenyl]prop-2-enamide] |
| 0.55 µM | CC(=O)N[C@H]1CCN(C(=O)CNC(=O)/C=C/c2ccc(C(F)(F)F)cc2)C1 [I-143, (E)-N-[2-[(3S)-3-acetamidopyrrolidin-1-yl]-2-oxoethyl]-3-[4-(trifluoromethyl)phenyl]prop-2-enamide] |
| 0.261 µM | CNC(=O)[C@H]1CCN(C(=O)CNC(=O)/C=C/c2ccc(C(F)(F)F)cc2)C1 [I-144, (3S)-N-methyl-1-[2-[[(E)-3-[4-(trifluoromethyl)phenyl]prop-2-enoyl]amino]acetyl]pyrrolidine-3-carboxamide] |
| 1.7 µM | CN(C)C(=O)[C@H]1CCN(C(=O)CNC(=O)/C=C/c2ccc(C(F)(F)F)cc2)C1 [I-145, (3S)-N,N-dimethyl-1-[2-[[(E)-3-[4-(trifluoromethyl)phenyl]prop-2-enoyl]amino]acetyl]pyrrolidine-3-carboxamide] |
| 0.093 µM | CN(C)C(=O)c1cn2c(n1)CN(C(=O)CNC(=O)/C=C/c1ccc(C(F)(F)F)cc1)CC2 [I-146] |
| 0.298 µM | COCCN(C)C(=O)CN(CCOC)C(=O)CNC(=O)/C=C/c1ccc(C(F)(F)F)cc1 [I-147, (E)-N-[2-[2-methoxyethyl-[2-[2-methoxyethyl(methyl)amino]-2-oxoethyl]amino]-2-oxoethyl]-3-[4-(trifluoromethyl)phenyl]prop-2-enamide] |
| 0.259 µM | COCCN(CC(=O)N(C)CCO)C(=O)CNC(=O)/C=C/c1ccc(C(F)(F)F)cc1 [I-148, (E)-N-[2-[[2-[2-hydroxyethyl(methyl)amino]-2-oxoethyl]-(2-methoxyethyl)amino]-2-oxoethyl]-3-[4-(trifluoromethyl)phenyl]prop-2-enamide] |
| 0.17 µM | COCCN(CC(=O)N(C)C)C(=O)CNC(=O)/C=C/c1ccc(C(F)(F)F)cc1 [I-149, (E)-N-[2-[[2-(dimethylamino)-2-oxoethyl]-(2-methoxyethyl)amino]-2-oxoethyl]-3-[4-(trifluoromethyl)phenyl]prop-2-enamide] |
| 0.044 µM | O=C(/C=C/c1ccc(C(F)(F)F)cc1)NCC(=O)N1CCn2nc(C(F)(F)F)nc2C1 [I-172] |
| 0.03 µM | O=C(/C=C/c1ccc(C(F)(F)F)cc1)NCC(=O)N1CCn2nc(CO)cc2C1 [I-173, (E)-N-[2-[2-(hydroxymethyl)-6,7-dihydro-4H-pyrazolo[1,5-a]pyrazin-5-yl]-2-oxo-ethyl]-3-[4-(trifluoromethyl)phenyl]prop-2-enamide] |
| 0.048 µM | Cc1nc2n(n1)CCN(C(=O)CNC(=O)/C=C/c1ccc(C(F)(F)F)cc1)C2 [I-174] |
| 0.071 µM | COCCN(Cc1cnccn1)C(=O)CNC(=O)/C=C/c1ccc(C(F)(F)F)cc1 [I-175] |
| 0.185 µM | O=C(/C=C/c1ccc(C(F)(F)F)cc1)NCC(=O)N1CC[C@H](n2cccn2)C1 [I-176] |
| 0.087 µM | O=C(/C=C/c1ccc(C(F)(F)F)cc1)NCC(=O)N1CC[C@@H](n2cccn2)C1 [I-177] |

| IC50 | SMILES |
| --- | --- |
| 0.06 µM | O=C(/C=C/c1ccc(C(F)(F)F)cc1)NCC(=O)N1Cc2nccnc2C1 [I-178] |
| 0.06 µM | O=C(/C=C/c1ccc(C(F)(F)F)cc1)NCC(=O)N1CCCn2ccnc2C1 [I-179] |
| 0.02 µM | O=C(/C=C/c1ccc(C(F)(F)F)cc1)NCC(=O)N1CCn2nccc21 [I-180] |
| 0.06 µM | C[C@H]1Cn2nccc2CN1C(=O)CNC(=O)/C=C/c1ccc(C(F)(F)F)cc1 [I-181] |
| 0.168 µM | CC1CN(C(=O)CNC(=O)/C=C/c2ccc(C(F)(F)F)cc2)Cc2ccccc21 (stereo not shown) [I-182] |
| 0.08 µM | O=C(/C=C/c1ccc(C(F)(F)F)cc1)NCC(=O)N1Cc2ccccc2C(c2ccccc2)C1 (stereo not shown) [I-183] |
| 0.047 µM | Cc1cc2n(n1)CCCN2C(=O)CNC(=O)/C=C/c1ccc(C(F)(F)F)cc1 [I-184] |
| 0.031 µM | O=C(/C=C/c1ccc(C(F)(F)F)cc1)NCC(=O)N1CCCc2ncccc21 [I-185] |
| 0.01 µM | O=C(/C=C/c1ccc(C(F)(F)F)cc1)NCC(=O)N1CCCc2cnccc21 [I-186] |
| 0.026 µM | CC1CCN(C(=O)CNC(=O)/C=C/c2ccc(C(F)(F)F)cc2)c2ccnn21 (stereo not shown) [I-187] |
| 0.034 µM | CS(=O)(=O)Nc1ccc2c(c1)CCN(C(=O)CNC(=O)/C=C/c1ccc(C(F)(F)F)cc1)C2 [I-188] |
| 0.035 µM | NS(=O)(=O)c1ccc2c(c1)CN(C(=O)CNC(=O)/C=C/c1ccc(C(F)(F)F)cc1)CC2 [I-189] |
| 0.021 µM | N#Cc1cnn2c1CN(C(=O)CNC(=O)/C=C/c1ccc(C(F)(F)F)cc1)CC2 [I-190] |
| 0.031 µM | O=C(/C=C/c1ccc(C(F)(F)F)cc1)NCC(=O)N1CCc2cccc(C(F)(F)F)c2C1 [I-191] |
| 0.03 µM | N#Cc1cccc2c1CCN(C(=O)CNC(=O)/C=C/c1ccc(C(F)(F)F)cc1)C2 [I-192] |
| 0.05 µM | Cc1cccc2c1CN(C(=O)CNC(=O)/C=C/c1ccc(C(F)(F)F)cc1)CC2 [I-193] |
| 0.14 µM | O=C(/C=C/c1ccc(C(F)(F)F)cc1)NCC(=O)N1CCc2c(cccc2C(F)(F)F)C1 [I-194] |
| 0.054 µM | O=C(/C=C/c1ccc(C(F)(F)F)cc1)NCC(=O)N1CCc2ccc(Br)cc2C1 [I-195] |
| 0.017 µM | O=C(/C=C/c1ccc(C(F)(F)F)cc1)NCC(=O)N1CCc2cccc(Br)c2C1 [I-196] |
| 0.025 µM | N#Cc1ccc2c(c1)CN(C(=O)CNC(=O)/C=C/c1ccc(C(F)(F)F)cc1)CC2 [I-197] |
| 0.022 µM | O=C(/C=C/c1ccc(C(F)(F)F)cc1)NCC(=O)N1CCn2ncc(Cl)c2C1 [I-202] |
| 0.045 µM | CNC(=O)c1cc2n(n1)CCN(C(=O)CNC(=O)/C=C/c1ccc(C(F)(F)F)cc1)C2 [I-203] |
| 0.819 µM | C[C@@H]1c2ncnn2CCN1C(=O)CNC(=O)/C=C/c1ccc(C(F)(F)F)cc1 [I-204] |
| 0.088 µM | CNC(=O)c1nc2n(n1)CCN(C(=O)CNC(=O)/C=C/c1ccc(C(F)(F)F)cc1)C2 [I-205] |
| 0.077 µM | CN(C)C(=O)c1nc2n(n1)CCN(C(=O)CNC(=O)/C=C/c1ccc(C(F)(F)F)cc1)C2 [I-206] |
| 0.324 µM | O=C(/C=C/c1ccc(C(F)(F)F)cc1)NCC(=O)N1CCn2ncnc2C12CC2 [I-207] |
